Laboratory results published in US9451909B2, “System and method for detecting amyloid proteins” (Cognoptix, Inc., priority 2010, dated 2016).

Key:
[1] = Ocular pharmacokinetics study, topical ointment, fluorescence lifetime and intensity measurements in the lens; assay type: in vivo, Dutch-belted rabbits
Experimental: Ocular pharmacokinetic investigation of dose response via topical administration of fluorescence amyloid-binding compound was performed in Dutch-belted rabbits. The rabbits were tested each day over a 4 day period using Compound #11 amyloid-binding compound in an ointment. Two animals were dosed in the right eye with Compound #11 (0.5%) in ointment form. One animal was untreated and used as control animal. The animals were dosed at specific time points for four days and tested with SAPPHIRE II system for fluorescence intensity and lifetime measurements at the beginning and end of each day.
All animals were dosed with Compound #11 via topical ocular application and tested in the right eye. Animals were anesthetized and manually held on a platform in front of the Neuroptix SAPPHIRE II device. Gross positioning was done by the animal handler, and fine tuning of the measurement location was done by the Neuroptix SAPPHIRE II operator. Once aligned, the SAPPHIRE II operator initiated the measurement sequence. Baseline measurements were made on the animals before dosing, and then at the beginning and end of each day (Table 1).
Fluorescence lifetime and intensity measurements were performed in the eye at the beginning and at the end of each day. The measurements entailed scanning the rabbit eye axially (z-scan) to obtain inter-ocular information and a planar scan (xy-scan) to perform lifetime decay measurements in a certain region of the eye, which is the lens nucleus in this case.
Once the location of interest was identified, Time Correlation Single Photon Counting (TCSPS) was initiated while performing the xy-scan. The fluorescence lifetime images were then obtained where the decay lifetime histogram was obtained for each pixel location. The calculated decay times were color coded in the fluorescence lifetime image. Each measurement was performed three times. The frequency count of photons of specific decay rates were calculated from the decay rates frequency that of the Compound #11 signature obtained in the xy-scan and averaged over the three measurements. […] The device was specifically designed for human use but the platform was slightly modified for holding the rabbits.
Group 1: Animals were anesthetized with subcutaneous injection of Dexdomitor (0.5 mg/kg), Ketamine (5 mg/kg). A ribbon of ointment approximately ½ inch long was then applied to the lower right eyelid of each animal in the test group three times a day for four days.

[2] = molecular target: aggregated beta-amyloid (Aβ) peptide (Homo sapiens, UniProt P05067); settings: cited from earlier work
Sequence of aggregated beta-amyloid (Aβ) peptide (P05067 672-713 limits assumed): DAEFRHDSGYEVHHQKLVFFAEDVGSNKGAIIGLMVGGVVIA

[3] = system: aggregated Aβ(1-42) peptide; test: In vitro fluorescence lifetime measurements of Compound #11 with aggregated Aβ peptide (SAPPHIRE II device); assay type: binding; settings: unbound; 4 μM Compound #11, PBS, 25° C.
Experimental: (§1) In accordance with an embodiment of the invention, in vitro studies on aggregated Aβ peptides bound to Compound #11 were performed. Fluorescence lifetime measurements of Compound #11 with aggregated Aβ peptide were performed using a device in accordance with an embodiment of the invention. FIG. 8A is a fluorescence lifetime image showing Compound #11 and Compound #11 bound to aggregated Aβ peptide, with their corresponding fluorescence lifetime histograms shown in FIG. 8B, in accordance with an embodiment of the invention. By fitting the lifetime histograms, the decay rates are determined. […] An experimental description follows.
(§2) The purpose of this in vitro study was to identify the optical signature of the Compound #11 amyloid-binding compound, and to characterize its fluorescence properties when bound to aggregated Aβ peptide. […]
(§3) The Neuroptix SAPPHIRE II device (Neuroptix Corporation, Acton, Mass., U.S.A.) is a purpose built device for clinical studies in humans, which was adapted for in vitro measurements for this experiment. It employs a confocal scanning mechanism combined with fluorescence lifetime spectroscopy that allows differentiation of fluorophores. The device allows 1) scanning of the optical beam to specific locations in the anterior segments of the eye, such as the supranucleus and 2) identification of fluorescent fluorophores based on fluorescence lifetime measurements.
(§4) Aggregated Aβ peptide was prepared by dissolving Aβ(1-42) in PBS pH 7.4 to a final concentration of 100 μM. […] The solution was transferred to 5 mL vial and the fluorescence measurements were performed at 25° C.
(§5) The sample consisting of Compound #11 was placed in front of the Neuroptix SAPPHIRE II Device. Once the location of the scan in the sample was determined, a raster scan was performed to obtain fluorescence lifetime measurements. […] The shading that makes up most of the image background represents a lifetime decay of 1.4 nsec, which corresponds to that of the fluorescence amyloid-binding compound. […]

[4] = molecular target: T1, aggregated Aβ(1-42) peptide (Homo sapiens, UniProt P05067); test: as above; assay type: binding
T1 construct: Aggregated Aβ peptide was prepared by dissolving Aβ(1-42) in PBS pH 7.4
T1 sequence (P05067 672-713): as the sequence (P05067 672-713 limits assumed) above
Experimental: as §1, §2, §3, §4, §5

[5] = Fluorescence spectra and fluorescence lifetime histogram of Compound #11; assay type: physicochemical
Excerpt: In an embodiment according to the invention, the light source may be configured to emit light of an appropriate wavelength for a peak region of a fluorescent excitation spectrum for the amyloid-binding compound bound to the amyloid protein in the eye, and the optical unit may be configured to detect light of an appropriate wavelength for a peak region of a fluorescent emission spectrum for the amyloid-binding compound bound to the amyloid protein in the eye. For example, where the amyloid-binding compound is Compound #11, the excitation spectrum has a peak of about 470 nm, and the light source may be configured to emit light within plus or minus about 20 nm of the peak of about 470 nm, such as within plus or minus 5 nm, plus or minus 10 nm, plus or minus 15 nm or plus or minus 20 nm of 470 nm. Further, the emission spectrum for Compound #11 has a peak of about 580 nm, and the optical unit may be configured to detect light within plus or minus about 20 nm of the peak of about 580 nm, such as within plus or minus 5 nm, plus or minus 10 nm, plus or minus 15 nm or plus or minus 20 nm of 580 nm. In general, there is typically a shift between the peak of the excitation spectrum and the peak of the emission spectrum of a fluorescent compound. […] For example, an emission spectrum having a peak greater than about 500 nm is advantageous for distinguishing from the natural autofluorescence of the eye. […] FIG. 12 is an emission spectrum of the fluorescent amyloid-binding compound Compound #11 when excited at 470 nm, in accordance with an embodiment of the invention. Other excitation and emission spectra that may be used will be apparent to those of skill in the art based on the foregoing.
A fluorescent histogram of the fluorescent amyloid-binding compound Compound #11 is shown in FIG. 6, obtained by a device in accordance with an embodiment of the invention. Single exponential fitting results in a lifetime decay rate of 2 nsec.

COCCOCCOCCOC(=O)/C(C#N)=C/c1ccc2cc(N3CCCCC3)ccc2c1 [Compound #11, (E)-2-(2-(2-methoxyethoxy)ethoxy)ethyl-2-cyano-3-(6-(piperidin-1-yl)naphthalen-2-yl)acrylate]
fluorescence signal after repetitive topical administration ([1]; 5 mg/g in ointment form, three times a day for four days): Detectable fluorescence signal
decay rate in lifetime image of the lens (xy-scan) ([1]; animal 1003, end of fourth day): 2 nsec
change of fluorescence in the lens nucleus over four days ([1]; measured at beginning and end of each day, 4 days, rabbits 1002 and 1003): increase of Compound #11 fluorescence
time of stay in the lens nucleus ([1]; repetitive topical administration): at least 12 hours
accumulation in the lens nucleus ([1]; repetitive topical administration, after several hours of application): tended to accumulate in the nucleus
penetration of the cornea and detection in the lens ([1]; topical ocular, rabbit eyes): penetrate the cornea and be detected by the device in the lens
binding to aggregated beta-amyloid (Aβ) peptide [2]: has been shown to bind
fluorescence lifetime decay (time decay rate) of unbound compound [3]: 1.4 nsec
difference in fluorescence lifetime, bound vs unbound ([4]; Compound #11 vs Compound #11 bound to aggregated Aβ peptide): 0.85 nsec
fluorescence lifetime decay (time decay rate) of compound bound to aggregated Aβ peptide ([4]; bound to aggregated Aβ(1-42) 5 μM, 4 μM Compound #11, 25° C.): 2.25 nsec
excitation spectrum peak [5]: about 470 nm
emission spectrum peak ([5]; excited at 470 nm): about 580 nm
lifetime decay rate ([5]; single exponential fitting of fluorescent histogram (FIG. 6)): 2 nsec
